Laboratory results published in ChEMBL document CHEMBL4011582, “Human drug-induced liver injury severity is highly associated with dual inhibition of liver mitochondrial function and bile salt export pump” (Hepatology, 2014).

Legend:
clinical = details: human
Liver = format: ADME, mitochondria, Rattus norvegicus, Sprague-Dawley

CCCc1nc2c(C)cc(-c3nc4ccccc4n3C)cc2n1Cc1ccc(-c2ccccc2C(=O)O)cc1 gave a Cmax (clinical) of 851 nM.
With CC(C)(C)NC(=O)[C@@H]1C[C@@H]2CCCC[C@@H]2CN1C[C@@H](O)[C@H](Cc1ccccc1)NC(=O)[C@H](CC(N)=O)NC(=O)c1ccc2ccccc2n1 the IC50 (Liver) was “Non-Toxic” and the Cmax (clinical) was 3360 nM.
For CC(C)CN(C[C@@H](O)[C@H](Cc1ccccc1)NC(=O)O[C@H]1CCOC1)S(=O)(=O)c1ccc(N)cc1, the IC50 (Liver) was “Non-Toxic” and the Cmax (clinical) was 15200 nM.
With CC(C)(C)NC(=O)[C@@H]1CN(Cc2cccnc2)CCN1C[C@@H](O)C[C@@H](Cc1ccccc1)C(=O)N[C@H]1c2ccccc2C[C@H]1O.O the IC50 (Liver) was “Non-Toxic” and the Cmax (clinical) was 11700 nM.
Molecule Cc1c(O)cccc1C(=O)N[C@@H](CSc1ccccc1)[C@H](O)CN1C[C@H]2CCCC[C@H]2C[C@H]1C(=O)NC(C)(C)C has a Cmax (clinical) of 7040 nM.
For CC(C)(C)NCC(O)c1ccc(O)c(CO)c1 (configuration not stated) [ALBUTEROL], the IC50 (Liver) was “Non-Toxic” and the Cmax (clinical) was 58 nM.
CCCN(CCC)C(=O)Cc1c(-c2ccc(Cl)cc2)nc2ccc(Cl)cn12 [ALPIDEM] showed a Cmax (clinical) of 285 nM.
For CN(C)CCC(c1ccc(Br)cc1)c1ccccn1 (configuration not stated) [BROMPHENIRAMINE], the IC50 (Liver) was “Non-Toxic” and the Cmax (clinical) was 36 nM.
In the case of CCC(=O)O[C@]1(C(=O)CCl)[C@@H](C)C[C@H]2[C@@H]3CCC4=CC(=O)C=C[C@]4(C)[C@@]3(F)[C@@H](O)C[C@@]21C [CLOBETASOL PROPIONATE], the IC50 (Liver) is reported as “Non-Toxic” and the Cmax (clinical) is reported as 43 nM.
Work on Clc1ccccc1C(c1ccccc1)(c1ccccc1)n1ccnc1 [CLOTRIMAZOLE] yielded a Cmax (clinical) of 87 nM.
C#C[C@]1(O)CC[C@H]2[C@@H]3CCC4=Cc5oncc5C[C@]4(C)[C@H]3CC[C@@]21C [DANAZOL] showed a Cmax (clinical) of 750 nM.
For CCC(=O)O[C@H]1[C@H](O[C@@H]2[C@@H](C)[C@H](O[C@H]3C[C@@](C)(OC)[C@@H](O)[C@H](C)O3)[C@@H](C)C(=O)O[C@H](CC)[C@@](C)(O)[C@H](O)[C@@H](C)C(=O)[C@H](C)C[C@@]2(C)O)O[C@H](C)C[C@@H]1N(C)C.CCCCCCCCCCCCOS(=O)(=O)O [ERYTHROMYCIN ESTOLATE], the Cmax (clinical) was 4200 nM.
In the case of NS(=O)(=O)c1cc(C(=O)O)c(NCc2ccco2)cc1Cl [FUROSEMIDE], the Cmax (clinical) is reported as 18100 nM.
Work on COc1cc2ncnc(Nc3ccc(F)c(Cl)c3)c2cc1OCCCN1CCOCC1 [GEFITINIB] yielded a Cmax (clinical) of 356 nM.
Molecule COc1ccc(Cl)cc1C(=O)NCCc1ccc(S(=O)(=O)NC(=O)NC2CCCCC2)cc1 [GLYBURIDE] has a Cmax (clinical) of 210 nM.
With CC1=C(/C=C/C(C)=C/C=C/C(C)=C\C(=O)O)C(C)(C)CCC1 [ISOTRETINOIN] the Cmax (clinical) was 2870 nM.
In the case of CC(=O)N1CCN(c2ccc(OCC3COC(Cn4ccnc4)(c4ccc(Cl)cc4Cl)O3)cc2)CC1 (configuration not stated) [KETOCONAZOLE], the Cmax (clinical) is reported as 12500 nM.
Molecule N[C@@H](Cc1cc(I)c(Oc2ccc(O)c(I)c2)c(I)c1)C(=O)O [LIOTHYRONINE] has a Cmax (clinical) of 108 nM.
With COC(=O)C1=C(C)NC(C)=C(C(=O)OCCN(C)Cc2ccccc2)C1c1cccc([N+](=O)[O-])c1 (configuration not stated) [NICARDIPINE] the Cmax (clinical) was 81 nM.
COCCOC(=O)C1=C(C)NC(C)=C(C(=O)OC(C)C)C1c1cccc([N+](=O)[O-])c1 (configuration not stated) [NIMODIPINE] showed a Cmax (clinical) of 195 nM.
For CC(=O)O[C@H]1C(=O)[C@@]2(C)[C@H]([C@H](OC(=O)c3ccccc3)[C@]3(O)C[C@H](OC(=O)[C@H](O)[C@@H](NC(=O)c4ccccc4)c4ccccc4)C(C)=C1C3(C)C)[C@]1(OC(C)=O)CO[C@@H]1C[C@@H]2O [PACLITAXEL], the IC50 (Liver) was “Non-Toxic”.
In the case of CCc1ccc(CCOc2ccc(CC3SC(=O)NC3=O)cc2)nc1 (configuration not stated) [PIOGLITAZONE], the Cmax (clinical) is reported as 2950 nM.
Work on CC(=O)[C@H]1CC[C@H]2[C@@H]3CCC4=CC(=O)CC[C@]4(C)[C@H]3CC[C@]12C [PROGESTERONE] yielded a Cmax (clinical) of 193 nM.
Molecule CNC(=O)c1cc(Oc2ccc(NC(=O)Nc3ccc(Cl)c(C(F)(F)F)c3)cc2)ccn1 [SORAFENIB] has a Cmax (clinical) of 132 nM.
In the case of Cc1c(C)c2c(c(C)c1O)CCC(C)(COc1ccc(CC3SC(=O)NC3=O)cc1)O2 (configuration not stated) [TROGLITAZONE], the Cmax (clinical) is reported as 6390 nM.
COc1cc(C(=O)NS(=O)(=O)c2ccccc2C)ccc1Cc1cn(C)c2ccc(NC(=O)OC3CCCC3)cc12 [ZAFIRLUKAST] showed a Cmax (clinical) of 1210 nM.
